Reference: ChEMBL document CHEMBL6177997, “Design, Synthesis, and Evaluation of Novel ROCK Inhibitors for Glaucoma Treatment: Insights into In Vitro and In Vivo Efficacy and Safety” (J Med Chem, 2025)
Active and inactive are the calls of the source. No cut-off for these calls is given here.

Tests used:
[1] = molecular target: T1, Rho-associated protein kinase 1 (Homo sapiens, UniProt Q13464); test: Inhibition of ROCK1 (unknown origin) incubated for 40 mins in presence of ATP by ADP-glo assay
Target sequence in this assay (Q13464 whole entry): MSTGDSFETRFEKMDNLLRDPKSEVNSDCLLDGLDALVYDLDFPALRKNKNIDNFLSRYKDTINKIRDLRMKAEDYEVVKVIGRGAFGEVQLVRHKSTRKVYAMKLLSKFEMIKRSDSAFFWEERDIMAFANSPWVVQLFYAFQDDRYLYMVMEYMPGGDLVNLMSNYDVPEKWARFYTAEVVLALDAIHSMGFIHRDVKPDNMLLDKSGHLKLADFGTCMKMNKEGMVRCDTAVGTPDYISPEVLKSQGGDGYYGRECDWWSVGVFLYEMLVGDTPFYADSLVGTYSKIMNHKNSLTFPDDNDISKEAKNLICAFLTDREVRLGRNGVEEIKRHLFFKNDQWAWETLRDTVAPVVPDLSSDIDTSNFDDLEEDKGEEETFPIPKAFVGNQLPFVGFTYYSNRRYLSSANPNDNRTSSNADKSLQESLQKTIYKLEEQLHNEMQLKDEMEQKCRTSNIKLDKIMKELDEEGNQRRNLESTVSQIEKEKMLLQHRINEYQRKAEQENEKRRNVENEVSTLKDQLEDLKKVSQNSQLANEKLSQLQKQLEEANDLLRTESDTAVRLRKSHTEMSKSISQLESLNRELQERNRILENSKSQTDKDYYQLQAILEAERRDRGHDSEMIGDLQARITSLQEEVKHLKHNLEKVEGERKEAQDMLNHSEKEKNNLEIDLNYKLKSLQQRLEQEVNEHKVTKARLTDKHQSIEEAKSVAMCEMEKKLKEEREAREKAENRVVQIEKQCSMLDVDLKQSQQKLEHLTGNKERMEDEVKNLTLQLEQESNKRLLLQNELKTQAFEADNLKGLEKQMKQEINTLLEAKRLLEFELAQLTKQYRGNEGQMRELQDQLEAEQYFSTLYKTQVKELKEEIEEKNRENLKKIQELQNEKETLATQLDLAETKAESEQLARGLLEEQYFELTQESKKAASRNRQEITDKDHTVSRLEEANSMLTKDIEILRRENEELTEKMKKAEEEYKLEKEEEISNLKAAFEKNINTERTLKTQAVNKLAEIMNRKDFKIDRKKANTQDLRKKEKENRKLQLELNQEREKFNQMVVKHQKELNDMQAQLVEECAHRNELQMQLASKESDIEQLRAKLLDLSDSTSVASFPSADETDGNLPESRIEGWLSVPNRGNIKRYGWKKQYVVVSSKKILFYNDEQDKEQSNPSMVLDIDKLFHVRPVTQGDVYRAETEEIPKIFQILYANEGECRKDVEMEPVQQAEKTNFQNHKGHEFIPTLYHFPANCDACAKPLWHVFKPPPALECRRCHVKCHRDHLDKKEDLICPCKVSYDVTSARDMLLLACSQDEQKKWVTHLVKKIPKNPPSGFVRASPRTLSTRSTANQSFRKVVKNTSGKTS

[2] = molecular target: T2, MAP kinase-interacting serine/threonine-protein kinase 1 (Homo sapiens, UniProt Q9BUB5); test: Inhibition of MNK1 (unknown origin) preincubated for 10 mins followed by substrate addition and measured after 60 mins by ADP-glo kinase assay
Target sequence in this assay (Q9BUB5 whole entry): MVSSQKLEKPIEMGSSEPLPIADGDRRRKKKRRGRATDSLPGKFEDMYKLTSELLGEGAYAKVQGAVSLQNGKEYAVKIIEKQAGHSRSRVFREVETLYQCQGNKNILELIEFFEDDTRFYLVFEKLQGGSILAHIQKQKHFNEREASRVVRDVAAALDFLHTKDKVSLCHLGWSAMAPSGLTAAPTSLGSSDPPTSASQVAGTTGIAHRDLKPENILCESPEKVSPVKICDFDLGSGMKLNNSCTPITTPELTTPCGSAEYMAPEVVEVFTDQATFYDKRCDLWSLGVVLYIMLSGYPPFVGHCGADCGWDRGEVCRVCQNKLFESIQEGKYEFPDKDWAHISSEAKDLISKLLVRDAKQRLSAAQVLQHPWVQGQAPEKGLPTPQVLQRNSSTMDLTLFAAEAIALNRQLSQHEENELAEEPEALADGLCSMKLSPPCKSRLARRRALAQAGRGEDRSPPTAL

[3] = molecular target: T3, Rho-associated protein kinase 2 (Homo sapiens, UniProt O75116); test: Inhibition of ROCK2 (unknown origin) incubated for 40 mins in presence of ATP by ADP-glo assay
Target sequence in this assay (O75116 whole entry): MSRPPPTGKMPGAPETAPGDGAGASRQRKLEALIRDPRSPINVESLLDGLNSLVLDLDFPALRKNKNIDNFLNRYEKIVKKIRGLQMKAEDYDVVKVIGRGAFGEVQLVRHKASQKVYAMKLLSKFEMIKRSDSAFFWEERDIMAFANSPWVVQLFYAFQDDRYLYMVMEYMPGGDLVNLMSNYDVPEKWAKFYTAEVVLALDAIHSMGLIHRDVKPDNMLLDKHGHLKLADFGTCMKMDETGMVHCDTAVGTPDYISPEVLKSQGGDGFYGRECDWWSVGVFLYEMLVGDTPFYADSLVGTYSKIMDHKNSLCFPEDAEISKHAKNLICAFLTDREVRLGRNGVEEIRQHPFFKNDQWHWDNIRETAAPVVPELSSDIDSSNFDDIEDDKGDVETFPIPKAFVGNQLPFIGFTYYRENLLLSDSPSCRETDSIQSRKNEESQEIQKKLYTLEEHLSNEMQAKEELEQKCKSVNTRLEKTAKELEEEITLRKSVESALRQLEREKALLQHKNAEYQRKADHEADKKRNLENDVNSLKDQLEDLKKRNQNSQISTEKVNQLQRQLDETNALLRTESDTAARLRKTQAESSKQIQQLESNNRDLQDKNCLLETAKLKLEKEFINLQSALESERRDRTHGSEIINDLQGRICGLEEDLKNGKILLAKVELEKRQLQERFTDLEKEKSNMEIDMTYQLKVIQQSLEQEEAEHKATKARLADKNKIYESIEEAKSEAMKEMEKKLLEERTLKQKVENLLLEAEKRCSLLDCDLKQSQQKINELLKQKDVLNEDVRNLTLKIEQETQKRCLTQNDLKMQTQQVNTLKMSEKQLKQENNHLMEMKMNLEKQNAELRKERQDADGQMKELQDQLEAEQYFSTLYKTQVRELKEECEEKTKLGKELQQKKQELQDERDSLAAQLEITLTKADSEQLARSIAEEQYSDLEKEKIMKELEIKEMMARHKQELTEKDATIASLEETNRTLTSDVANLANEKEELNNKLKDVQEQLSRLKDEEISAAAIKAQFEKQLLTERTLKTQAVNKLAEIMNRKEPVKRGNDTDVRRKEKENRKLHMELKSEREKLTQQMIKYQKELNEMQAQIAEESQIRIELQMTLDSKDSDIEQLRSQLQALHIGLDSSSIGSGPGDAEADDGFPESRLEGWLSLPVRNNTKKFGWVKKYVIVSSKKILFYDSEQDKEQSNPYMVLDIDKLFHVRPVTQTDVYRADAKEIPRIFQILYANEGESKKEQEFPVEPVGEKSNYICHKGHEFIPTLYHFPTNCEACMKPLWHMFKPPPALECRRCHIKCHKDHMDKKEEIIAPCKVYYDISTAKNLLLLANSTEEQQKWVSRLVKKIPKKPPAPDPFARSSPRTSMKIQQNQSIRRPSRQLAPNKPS

[4] = system: HTM; test: Inhibition of paxillin expression in human HTM cells at 0.02 to 5 uM; type: functional, cell-based; details: dose 0.02-5 µM
[5] = species on record: Oryctolagus cuniculus; test: Anti-glaucoma activity in methylcellulose-induced acute intraocular hypertensive rabbit model assessed as reduction in intraocular pressure at 0.1 %, TOP measured at 8 hrs; type: functional
[6] = system: HTM; test: Anti-inflammatory activity against human HTM cells assessed as inhibition of H2O2-induced i-NOS secretion; type: functional, cell-based
[7] = molecular target: T3, Rho-associated protein kinase 2; test: Inhibition of ROCK2 (unknown origin) relative to control; details: concentration not given here
Target sequence in this assay (O75116 whole entry, looked up): as the sequence (O75116 whole entry) above

[8] = Toxicity in rabbit assessed as appearance of conjunctival congestion by measuring ocular irritation score at 0.1 % TOP administration on left eye measured at 7 days by draize eye irritation test; type: tissue-based, Oryctolagus cuniculus; details: in vivo, topical_or_ocular, 168 h, time 7 day
[9] = species on record: Oryctolagus cuniculus; test: Anti-glaucoma activity in methylcellulose-induced acute intraocular hypertensive rabbit model assessed as reduction in intraocular pressure at 0.1 %, TOP measured at 4 hrs; type: functional
[10] = system: HTM; test: Inhibition of H2O2-induced ROS production in human HTM cells assessed as decrease in green fluorescence at 1 uM preincubated for 1 hrs followed by H2O2 induction for 2 hrs and measured after 30 mins by DCFH-DA based fluorescence microscopic analysis; type: functional, cell-based; details: time 3.5 hrs
[11] = Cytotoxicity against human HTM cells assessed as inhibition of cell proliferation at 45 uM incubated for 24 hrs by MTT assay; type: toxicity, cell-based
[12] = species on record: Oryctolagus cuniculus; test: Anti-glaucoma activity in methylcellulose-induced acute intraocular hypertensive rabbit model assessed as reduction in intraocular pressure at 0.1 %, TOP measured at 2 hrs; type: functional
[13] = system: HTM; test: Anti-inflammatory activity against human HTM cells assessed as inhibition of H2O2-induced NF-kappaB secretion; type: functional, cell-based
[14] = Induction of apoptosis in H2O2-induced human HTM cells at 1 uM pretreated with compound for 1 hr followed by H2O2 induction and measured after 2 hrs by Annexin V AF647/PI staining based flow cytometry analysis (reference value: 13.47%); type: functional; details: time 3 hrs
[15] = system: HTM; test: Induction of morphological changes in human HTM cells assessed as appearance of cell contraction at 45 uM incubated for 10 hrs by light microscopic analysis; type: functional, cell-based
[16] = system: HTM; test: Inhibition of TGF-beta2 induced alpha-SMA expression in human HTM cells at 1 uM pretreated with compound for 2 hrs followed by TGF-beta2 induction and measured after 24 hrs; type: functional, cell-based; details: time 26.0 hrs
[17] = system: HTM; test: Induction of morphological changes in human HTM cells assessed as appearance of cell contraction at 15 uM incubated for 10 hrs by light microscopic analysis; type: functional, cell-based
[18] = system: HTM; test: Anti-inflammatory activity against human HTM cells assessed as inhibition of H2O2-induced IL-6 secretion; type: functional, cell-based
[19] = system: Mitochondrial membrane; test: Induction of mitochondrial membrane potential in human HTM cells at 1 uM incubated for 24 hrs by JC-1 staining based flow cytometry analysis
[20] = system: HTM; test: Inhibition of cell migration in human HTM cells at 1 uM incubated for 24 to 48 hrs by wound healing assay; type: functional, cell-based; details: time 24-48 hrs
[21] = system: HTM; test: Induction of morphological changes in human HTM cells at 3 uM incubated for 10 hrs by light microscopic analysis; type: functional, cell-based
[22] = system: HTM; test: Inhibition of TGF-beta2 induced collagen 1A expression in human HTM cells at 1 uM pretreated with compound for 2 hrs followed by TGF-beta2 induction and measured after 24 hrs; type: functional, cell-based; details: time 26.0 hrs
[23] = molecular target: Serine/threonine-protein kinase SIK2 (Homo sapiens) (UniProt Q9H0K1); test: Inhibition of human QIK using magnesium acetate as substrate at 1 uM measured after 120 mins in presence of [gamma33P]ATP by scintillation counting method relative to control
[24] = molecular target: T2, MAP kinase-interacting serine/threonine-protein kinase 1; test: Inhibition of MNK1 (unknown origin) at 5 uM preincubated for 10 mins followed by substrate addition and measured after 60 mins by ADP-glo kinase assay relative to control; details: time 70.0 min
Target sequence in this assay (Q9BUB5 whole entry, looked up): as the sequence (Q9BUB5 whole entry) above

[25] = molecular target: T2, MAP kinase-interacting serine/threonine-protein kinase 1; test: Inhibition of human MNK1 using magnesium acetate as substrate at 1 uM measured after 120 mins in presence of [gamma33P]ATP by scintillation counting method relative to control
Target sequence in this assay (Q9BUB5 whole entry, looked up): as the sequence (Q9BUB5 whole entry) above

[26] = molecular target: T3, Rho-associated protein kinase 2; test: Inhibition of human ROCK2 using magnesium acetate as substrate at 1 uM measured after 120 mins in presence of [gamma33P]ATP by scintillation counting method relative to control
Target sequence in this assay (O75116 whole entry, looked up): as the sequence (O75116 whole entry) above

[27] = molecular target: T1, Rho-associated protein kinase 1; test: Inhibition of human ROCK1 using magnesium acetate as substrate at 1 uM measured after 120 mins in presence of [gamma33P]ATP by scintillation counting method relative to control
[28] = molecular target: MAP kinase-interacting serine/threonine-protein kinase 2 (Homo sapiens) (UniProt Q9HBH9); test: Inhibition of MNK2 (unknown origin) at 5 uM preincubated for 10 mins followed by substrate addition and measured after 60 mins by ADP-glo kinase assay relative to control; details: time 70.0 min
[29] = species on record: Homo sapiens; test: Inhibition of human PKB using magnesium acetate as substrate at 1 uM measured after 120 mins in presence of [gamma33P]ATP by scintillation counting method relative to control
[30] = species on record: Oryctolagus cuniculus; test: Anti-glaucoma activity in methylcellulose-induced high acute intraocular hypertensive rabbit model assessed as reduction in intraocular pressure at 0.1 %, TOP measured at 4 hrs; type: functional
[31] = molecular target: MAP kinase-interacting serine/threonine-protein kinase 2 (Homo sapiens) (UniProt Q9HBH9); test: Inhibition of human MNK2 using magnesium acetate as substrate at 1 uM measured after 120 mins in presence of [gamma33P]ATP by scintillation counting method relative to control
[32] = molecular target: Protein kinase C (PKC) (Homo sapiens) (UniProt O94806+P41743+P17252+P05129+Q05655+P05771+Q05513+Q02156+P24723+Q15139+Q04759); test: Inhibition of human PKC using magnesium acetate as substrate at 1 uM measured after 120 mins in presence of [gamma33P]ATP by scintillation counting method relative to control; type: protein assay
[33] = system: HTM; test: Induction of F-actin depolymerization in human HTM cells at 1 to 5 uM incubated for 4 hrs by rhodamine-phalloidin staining based analysis; type: cell-based; details: dose 1-5 µM
[34] = system: HTM; test: Induction of morphological changes in human HTM cells at 0.1 uM incubated for 10 hrs in presence of eFT508 by light microscopic analysis; type: functional, cell-based
[35] = species on record: Homo sapiens; test: Inhibition of human PKA using magnesium acetate as substrate at 1 uM measured after 120 mins in presence of [gamma33P]ATP by scintillation counting method relative to control
[36] = molecular target: Mitogen-activated protein kinase kinase kinase kinase 4 (Homo sapiens) (UniProt O95819); test: Inhibition of human HGK using magnesium acetate as substrate at 1 uM measured after 120 mins in presence of [gamma33P]ATP by scintillation counting method relative to control
[37] = system: HTM; test: Inhibition of paxillin expression in human HTM cells at 5 uM; type: functional, cell-based
[38] = system: HTM; test: Induction of F-actin depolymerization in human HTM cells at 5 uM incubated for 4 hrs by rhodamine-phalloidin staining based analysis; type: cell-based
[39] = Toxicity in rabbit assessed as appearance of conjunctival congestion by measuring ocular irritation score at 0.1 % TOP administration on left eye measured after 7 days by draize eye irritation test; type: tissue-based, Oryctolagus cuniculus; details: in vivo, topical_or_ocular, 168 h, time 7 day
[40] = Cytotoxicity against human HTM cells assessed as reduction in cell viability at 15 uM incubated for 24 hrs by MTT assay relative to control; type: toxicity, cell-based
[41] = Cytotoxicity against human HTM cells assessed as reduction in cell viability at 45 uM incubated for 24 hrs by MTT assay relative to control; type: toxicity, cell-based
[42] = Toxicity in rabbit assessed as appearance of conjunctival congestion by measuring ocular irritation score at 0.1 % TOP administration on left eye measured on day 4 by draize eye irritation test; type: tissue-based, Oryctolagus cuniculus; details: in vivo, topical_or_ocular, 96 h, time 4 day
[43] = system: HTM; test: Induction of morphological changes in human HTM cells assessed as appearance of rounded cells at 15 uM incubated for 10 hrs by light microscopic analysis; type: functional, cell-based
[44] = system: HTM; test: Induction of morphological changes in human HTM cells assessed as appearance of rounded cells at 45 uM incubated for 10 hrs by light microscopic analysis; type: functional, cell-based

Chain of MAP kinase-interacting serine/threonine-protein kinase 2 (Homo sapiens) (Q9HBH9 whole entry, looked up): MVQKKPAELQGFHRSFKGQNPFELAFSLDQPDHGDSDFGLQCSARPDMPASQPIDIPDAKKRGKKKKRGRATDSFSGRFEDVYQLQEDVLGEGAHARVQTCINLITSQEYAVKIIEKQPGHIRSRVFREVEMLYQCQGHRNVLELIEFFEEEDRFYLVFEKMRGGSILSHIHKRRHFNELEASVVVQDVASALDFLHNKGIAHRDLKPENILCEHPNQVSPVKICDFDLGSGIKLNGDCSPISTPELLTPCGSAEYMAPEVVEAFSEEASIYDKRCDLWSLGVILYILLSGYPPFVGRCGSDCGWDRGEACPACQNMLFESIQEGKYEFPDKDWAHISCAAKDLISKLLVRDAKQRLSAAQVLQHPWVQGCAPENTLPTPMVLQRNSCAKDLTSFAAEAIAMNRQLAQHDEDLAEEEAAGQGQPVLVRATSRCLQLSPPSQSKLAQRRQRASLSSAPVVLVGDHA
Chain of Serine/threonine-protein kinase SIK2 (Homo sapiens) (Q9H0K1 whole entry, looked up): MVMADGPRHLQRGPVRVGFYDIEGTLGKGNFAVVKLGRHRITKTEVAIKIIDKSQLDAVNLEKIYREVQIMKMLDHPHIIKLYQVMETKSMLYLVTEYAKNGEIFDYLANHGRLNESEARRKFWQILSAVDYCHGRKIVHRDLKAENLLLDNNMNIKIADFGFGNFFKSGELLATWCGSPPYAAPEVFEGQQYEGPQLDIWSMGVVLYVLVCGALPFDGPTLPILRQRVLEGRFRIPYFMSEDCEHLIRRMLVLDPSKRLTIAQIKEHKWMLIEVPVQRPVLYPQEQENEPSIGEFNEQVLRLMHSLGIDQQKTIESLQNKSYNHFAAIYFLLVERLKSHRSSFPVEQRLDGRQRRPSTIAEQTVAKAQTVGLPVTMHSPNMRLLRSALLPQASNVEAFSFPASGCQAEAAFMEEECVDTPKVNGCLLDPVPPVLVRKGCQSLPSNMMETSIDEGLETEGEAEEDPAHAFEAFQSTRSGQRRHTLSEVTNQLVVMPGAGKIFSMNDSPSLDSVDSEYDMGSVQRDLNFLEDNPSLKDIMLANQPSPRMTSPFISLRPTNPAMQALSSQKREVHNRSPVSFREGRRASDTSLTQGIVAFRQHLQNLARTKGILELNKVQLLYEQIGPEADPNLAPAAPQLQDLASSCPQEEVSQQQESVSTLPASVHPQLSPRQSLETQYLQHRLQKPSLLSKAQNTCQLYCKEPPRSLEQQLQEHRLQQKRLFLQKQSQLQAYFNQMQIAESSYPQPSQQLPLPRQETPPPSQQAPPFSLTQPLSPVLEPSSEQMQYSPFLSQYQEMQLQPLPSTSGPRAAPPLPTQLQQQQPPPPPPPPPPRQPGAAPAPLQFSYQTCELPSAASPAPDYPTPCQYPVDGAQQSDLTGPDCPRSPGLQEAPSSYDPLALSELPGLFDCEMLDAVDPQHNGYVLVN

c1cc(-c2cc(C3CCNCC3)n[nH]2)c2cc[nH]c2n1
IC50 [1]: 47.2 nM | IC50 [2]: 47.2 nM | IC50 [3]: 33.8 nM | inhibition [4]: Active | Activity [5]: 2.56 mmHg | Activity [6]: Active | inhibition [7]: 98% | Activity [8]: Non-toxic | Activity [9]: 5 mmHg | inhibition [10]: Active | Activity [11]: Non-toxic | Activity [12]: 9.38 mmHg | inhibition [13]: Active | Activity [14]: 36.77% | Activity [15]: Active | inhibition [16]: Active | Activity [17]: Active | Activity [18]: Active | Activity [19]: inactive | inhibition [20]: inactive | Activity [21]: Minimal_effect; Compound Induced Minimal Changes In Cell Morphology | inhibition [22]: Active

COc1cccc(CN2CCC(c3cc(-c4ccnc5[nH]ccc45)[nH]n3)CC2)c1
IC50 [1]: 123 nM | inhibition [23]: < 50% | IC50 [3]: 96.7 nM | inhibition [4]: Active | Activity [5]: 0.22 mmHg | inhibition [24]: 61.6% | inhibition [25]: < 55% | Activity [6]: Active | Activity [8]: Non-toxic | Activity [9]: 0.89 mmHg | inhibition [10]: Active | inhibition [26]: 89% | inhibition [27]: 85% | inhibition [28]: 64.7% | inhibition [29]: < 50% | Activity [11]: Non-toxic | Activity [30]: 5.01 mmHg | inhibition [31]: < 50% | inhibition [13]: Active | Activity [14]: 34.32% | Activity [15]: Active | inhibition [16]: Active | inhibition [32]: < 55% | Activity [17]: Active | Activity [18]: Active | Activity [19]: Active | Activity [33]: Active | inhibition [20]: inactive | Activity [21]: Minimal_effect; Compound Induced Minimal Changes In Cell Morphology | Activity [34]: Active | inhibition [35]: 70% | inhibition [22]: Active | inhibition [36]: < 55%

C[C@H]1CNCCCN1S(=O)(=O)c1cccc2cncc(F)c12
inhibition [10]: Active | inhibition [37]: inactive | Activity [14]: 39.46% | inhibition [16]: Active | Activity [19]: inactive | Activity [21]: Active | Activity [38]: Active | inhibition [22]: Active

Cc1ccc(C(=O)OCc2ccc([C@@H](CN)C(=O)Nc3ccc4cnccc4c3)cc2)c(C)c1
Activity [39]: Toxic | Activity [40]: 60% | Activity [5]: 4.7 mmHg | Activity [41]: 80% | Activity [9]: 3.55 mmHg | inhibition [10]: Active | inhibition [37]: Active | Activity [12]: 8.16 mmHg | Activity [30]: 9.5 mmHg | Activity [14]: 43.02% | inhibition [16]: Active | Activity [19]: inactive | Activity [42]: Toxic | Activity [38]: Active | inhibition [22]: Active | Activity [43]: Active | Activity [44]: Active
